Experimental data: patent publication US20050164945A1, “Endotheliase-1 ligands” (priority 2003, published 2005)

Assays:
MTSP-1 = MTSP-1 (Homo sapiens, UniProt Q9Y5Y6); settings: 30 minute preincubation with 100 nM Kunitz domain
Description: (§1) Cloning into this vector placed a His-tag at the C-terminus of the protein that was used to facilitate purification.
(§2) For protein production, E. coli containing the expression vector were grown in media containing ampicillin and 2% glucose to an OD600 of 0.5. At this time the cells were spun down and the media removed. The cell pellet was then resuspended in fresh media containing ampicillin and 1 mM IPTG to induce expression of the protein. The cells were allowed to grow with shaking overnight at 30° C. before harvesting by centrifugation. Periplasmic extracts were then prepared and the MBP-Kunitz fusion purified using immobilized metal ion chromatography.

Trypsin = settings: read-out: Trypsin estimated IC50, 30 minute preincubation with 100 nM Kunitz domain
Description: as §1, §2

ET-2 = settings: for IC50: read-out: ET-2 estimated IC50, 30 minute preincubation with 100 nM Kunitz domain; for ET-2 estimated IC50: 30 minute preincubation with 100 nM Kunitz domain
Description: as §1, §2

fXa = fXa (Homo sapiens, UniProt P00742); settings: 30 minute preincubation with 100 nM Kunitz domain
Description: as §1, §2

TnIV = TnIV (Homo sapiens, UniProt P35030); settings: 30 minute preincubation with 100 nM Kunitz domain
Description: as §1, §2

Chain of ET-2 (Q9BYE2 326-559 limits assumed): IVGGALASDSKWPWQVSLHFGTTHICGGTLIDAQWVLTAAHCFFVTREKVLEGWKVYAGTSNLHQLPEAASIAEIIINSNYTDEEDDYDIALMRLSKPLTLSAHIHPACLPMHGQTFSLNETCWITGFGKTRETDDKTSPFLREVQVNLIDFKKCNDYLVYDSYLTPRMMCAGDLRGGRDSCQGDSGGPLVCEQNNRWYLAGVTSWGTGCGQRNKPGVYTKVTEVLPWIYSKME
Chain of MTSP-1 (Q9Y5Y6 whole entry, species assumed, the tested form may be a part): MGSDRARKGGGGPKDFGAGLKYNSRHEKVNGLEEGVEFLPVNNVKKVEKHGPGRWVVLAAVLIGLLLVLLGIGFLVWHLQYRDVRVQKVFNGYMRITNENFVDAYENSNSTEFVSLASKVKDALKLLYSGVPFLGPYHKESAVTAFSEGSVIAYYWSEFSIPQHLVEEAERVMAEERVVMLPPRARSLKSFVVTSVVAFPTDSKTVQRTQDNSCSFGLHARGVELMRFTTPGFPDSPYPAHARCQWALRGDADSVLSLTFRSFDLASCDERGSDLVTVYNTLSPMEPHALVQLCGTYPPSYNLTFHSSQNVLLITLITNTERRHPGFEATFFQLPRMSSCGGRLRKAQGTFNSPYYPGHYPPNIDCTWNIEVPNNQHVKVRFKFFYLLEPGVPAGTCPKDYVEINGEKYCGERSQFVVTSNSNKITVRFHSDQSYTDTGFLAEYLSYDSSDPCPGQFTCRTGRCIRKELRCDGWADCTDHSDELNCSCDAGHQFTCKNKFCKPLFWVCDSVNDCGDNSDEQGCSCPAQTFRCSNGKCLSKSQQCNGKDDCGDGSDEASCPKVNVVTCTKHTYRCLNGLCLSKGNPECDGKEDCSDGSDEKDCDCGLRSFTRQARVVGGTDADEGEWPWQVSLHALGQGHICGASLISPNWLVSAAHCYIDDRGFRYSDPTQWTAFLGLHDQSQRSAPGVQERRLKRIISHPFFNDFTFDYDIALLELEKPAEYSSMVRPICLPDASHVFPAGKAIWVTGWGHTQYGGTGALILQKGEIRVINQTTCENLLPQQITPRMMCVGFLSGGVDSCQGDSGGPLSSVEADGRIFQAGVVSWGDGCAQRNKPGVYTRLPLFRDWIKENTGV
Chain of fXa (P00742 235-488 limits assumed): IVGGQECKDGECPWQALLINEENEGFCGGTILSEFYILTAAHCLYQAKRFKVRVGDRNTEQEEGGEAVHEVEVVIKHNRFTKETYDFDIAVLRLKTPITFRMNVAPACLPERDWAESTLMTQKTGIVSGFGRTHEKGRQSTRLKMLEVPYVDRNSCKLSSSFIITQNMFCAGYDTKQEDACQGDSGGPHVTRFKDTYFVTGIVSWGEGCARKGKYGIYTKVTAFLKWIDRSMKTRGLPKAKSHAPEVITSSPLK
Chain of fXa (P00742 41-179 partner limits assumed): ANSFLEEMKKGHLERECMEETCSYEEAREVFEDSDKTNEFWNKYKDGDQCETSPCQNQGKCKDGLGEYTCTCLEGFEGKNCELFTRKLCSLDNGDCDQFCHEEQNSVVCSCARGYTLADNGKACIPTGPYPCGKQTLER
Chain of TnIV (P35030 whole entry, the tested form may be a part): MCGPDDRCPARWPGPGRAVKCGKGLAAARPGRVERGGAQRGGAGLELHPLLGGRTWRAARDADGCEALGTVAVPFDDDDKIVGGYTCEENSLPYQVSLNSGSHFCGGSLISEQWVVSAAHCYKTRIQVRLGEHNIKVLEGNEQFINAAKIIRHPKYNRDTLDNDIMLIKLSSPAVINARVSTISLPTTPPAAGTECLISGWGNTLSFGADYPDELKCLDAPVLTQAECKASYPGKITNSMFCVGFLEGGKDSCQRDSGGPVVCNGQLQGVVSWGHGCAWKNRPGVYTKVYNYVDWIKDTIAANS

Sequence | MTSP-1 estimated IC50 (MTSP-1) | IC50 (Trypsin) | IC50 (ET-2) | fXa estimated IC50 (fXa) | TnIV estimated IC50 (TnIV) | ET-2 estimated IC50 (ET-2)
MAAEMHSFCAFKADQGPCRAAISRFFFNIFTRQCEEFVYGGCEGNQNRFESLEECKKMCTRDSASSASGDFD [MBP-1D9] | IA (IA = <5% inhibition @ 100 nM) | ~50 nM | ≥ 1000 nM | IA (IA = <5% inhibition @ 100 nM) |  | 
MAAEMHSFCAFKADPGPCRAIMTRFFFNIFTRQCEEFRYGGCLGNQNRFESLEECKKMCTRDSASSASGDFD [MBP-1G11] | IA (IA = <5% inhibition @ 100 nM) | < 10 nM | ≥ 1000 nM |  |  | 
MAAEMHSFCAFKADTGTCRAAMVRFFFNIFTRQCEEFTYGGCEGNQNRFESLEECKKMCTRDSASSASGDFD [MBP-1H8] | IA (IA = <5% inhibition @ 100 nM) | ~30 nM |  | IA (IA = <5% inhibition @ 100 nM) | IA (IA = <5% inhibition @ 100 nM) | IA (IA = <5% inhibition @ 100 nM)
MAAEMHSFCAFKADQGPCRASVHRFFFNIFTRQCEEFFYGGCLGNQNRFESLEECKKMCTRDSASSASGDFD [MBP-1F8] | IA (IA = <5% inhibition @ 100 nM) | < 10 nM |  | IA (IA = <5% inhibition @ 100 nM) | IA (IA = <5% inhibition @ 100 nM) | IA (IA = <5% inhibition @ 100 nM)
MAAEMHSFCAFKADPGPCRAMFNRFFFNIFTRQCEEFNYGGCSGNQNRFESLEECKKMCTRDSASSASGDFD [MBP-1E6] |  | < 10 nM | ~400 nM | IA (IA = <5% inhibition @ 100 nM) |  | 
MAAEMHSFCAFKADRGPCRADFHRFFFNIFTRQCEEFHYGGCGGNQNRFESLEECKKMCTRDSASSASGDFD [MBP-1A10] |  | < 10 nM |  | IA (IA = <5% inhibition @ 100 nM) |  | IA (IA = <5% inhibition @ 100 nM)
MAAEMHSFCAFKADTGPCRADIKRFFFNIFTRQCEEFRYGGCMGNQNRFESLEECKKMCTRDSASSASGDFD [MBP-1G9] |  | ~60 nM |  | IA (IA = <5% inhibition @ 100 nM) | IA (IA = <5% inhibition @ 100 nM) | IA (IA = <5% inhibition @ 100 nM)
MAAEMHSFCAFKADKGFCRAMDIRFFFNIFTRQCEEFIYGGCGGNQNRFESLEECKKMCTRDSASSASGDFD [MBP-1B2] | IA (IA = <5% inhibition @ 100 nM) | < 10 nM |  | IA (IA = <5% inhibition @ 100 nM) |  | IA (IA = <5% inhibition @ 100 nM)
MAAEMHSFCAFKADKGTCRGDFPRFFFNIFTRQCEEFHYGGCGGNQNRFESLEECKKMCTRDSASSASGDFD [MBP-1E9] | IA (IA = <5% inhibition @ 100 nM) | ≥ 1000 nM |  | IA (IA = <5% inhibition @ 100 nM) |  | IA (IA = <5% inhibition @ 100 nM)
MAAEMHSFCAFKADPGQCRAYYRRFFFNIFTRQCEEFVYGGCMGNQNRFESLEECKKMCTRDSASSASGDFD [MBP-1G2] | IA (IA = <5% inhibition @ 100 nM) | < 10 nM | ~300 nM |  |  | 
MAAEMHSFCAFKADRGPCRAYFDRFFFNIFTRQGEEFIYGGCMGNQNRFESLEECKKMCTRDSASSASGDFD [MBP-1G8] | IA (IA = <5% inhibition @ 100 nM) | ~10 nM |  |  |  | IA (IA = <5% inhibition @ 100 nM)
MAAEMHSFCAFKADKGECRASVQRFFFNIFTRQCEEFNYGGCGGNQNRFESLEECKKMCTRDSASSASGDFD [MBP-D12] | IA (IA = <5% inhibition @ 100 nM) | ~30 nM |  |  |  | IA (IA = <5% inhibition @ 100 nM)
